Results from patent US10130590B2, “Methods of treating cancer with atovaquone-related compounds” (DANA-FARBER CANCER INSTITUTE, INC., priority 2013, dated 2018).
Where two headings read alike, the source gives them in different places.

Tests used:
STAT5 = STAT5 phosphorylation in cancer cells; type: cell-based
Text: It has been discovered, using an unbiased gene expression-based approach, that atovaquone is a novel STAT3 inhibitor. Atovaquone acts by diminishing cell-surface gp130 expression and STAT3 tyrosine phosphorylation. As a consequence, critical STAT3 target genes mediating survival and proliferation are reduced, such as survivin, Bcl-2 family members, and cyclin D1. Moreover, atovaquone inhibits the viability of STAT3-dependent cancer cells by inducing apoptosis and disrupting cell cycle progression. […] Since STAT5 activation is crucial to cancer pathogenesis caused by JAK2-V617F, the additional inhibition of STAT5 in this context is a desirable effect of atovaquone. […] Because the effects of atovaquone on STAT activation are restricted to gp130-dependent signaling, atovaquone inhibits STATs more selectively than direct pharmacological JAK inhibition. […] At the same time, the actions of atovaquone extend to all cytokines that signal through gp130, including LIF and OSM, thereby exerting broader effects than therapies specifically directed against IL-6 or IL-6 receptor, such as monoclonal antibodies. This is also advantageous, since oncogenic effects of LIF and OSM have been reported.

[1] = cited from earlier work
[2] = tested on: JAK family members (TYK2, JAK2); assay: JAK auto-phosphorylation in cells (immunoprecipitation, Western blot); type: cell-based; conditions: U266 15 μM 1 hour (TYK2); HEL 20 μM 6 hours (JAK2)
Procedure: Western blotting was performed as previously described (Battle T E, Arbiser J, & Frank D A (2005) The natural product honokiol induces caspase dependent apoptosis in B-cell chronic lymphocytic leukemia (B-CLL) cells. Blood 106(2):690-697). Antibodies to phospho-MAPK (9101), total MAPK (9102), phospho-Y705 STAT3 (9131), phospho-S6 (2215), total S6 (2217), phospho-4E-BP1 (9451), total 4E-BP1 (9644), total RSK (9355), phospho-S6K (9234, 85 used at 1:5000), total S6K (2708), phospho-eIF2α (9721, used at 1:1000), total eIF2α (5324), ATF4 (11815, used at 1:1000), PDGFRβ (3169), IGF1Rβ (9750), EGFR (2232), and HER2 (2242) were from Cell Signaling Technology. Phospho-RSK antibody was from R&D (AF889). Antibodies to total STAT3 (sc-482) and gp130 (sc-656, used at 1:1000) were from Santa Cruz Biotechnology. […] Cell viability was measured as ATP-dependent luminescence by Cell Titer Glo (Promega).
To understand how atovaquone inhibits STAT3 phosphorylation, the possibility that atovaquone decreases the kinase activity of JAKs, which are responsible for STAT3 activation in the systems previously tested was considered. To assess kinase activity, the extent of kinase auto-phosphorylation, which provides a cellular readout of kinase activity, was first analyzed. […] Due to technical limitations, tyrosine phosphorylation of other JAK family members was not detected in U266 cells. […]

eIF2α/ATF4 pathway = assay: Western blot / qRT-PCR of phospho-eIF2α/ATF4 pathway; type: cell-based
Procedure: Western blotting was performed as previously described (Battle T E, Arbiser J, & Frank D A (2005) The natural product honokiol induces caspase dependent apoptosis in B-cell chronic lymphocytic leukemia (B-CLL) cells. Blood 106(2):690-697). Antibodies to phospho-MAPK (9101), total MAPK (9102), phospho-Y705 STAT3 (9131), phospho-S6 (2215), total S6 (2217), phospho-4E-BP1 (9451), total 4E-BP1 (9644), total RSK (9355), phospho-S6K (9234, 85 used at 1:5000), total S6K (2708), phospho-eIF2α (9721, used at 1:1000), total eIF2α (5324), ATF4 (11815, used at 1:1000), PDGFRβ (3169), IGF1Rβ (9750), EGFR (2232), and HER2 (2242) were from Cell Signaling Technology. Phospho-RSK antibody was from R&D (AF889). Antibodies to total STAT3 (sc-482) and gp130 (sc-656, used at 1:1000) were from Santa Cruz Biotechnology. Phospho-S727 STAT3 antibody was described previously (229). REDD1 antibody was from Proteintech (10638-1-AP, used at 1:1000). Antibody recognizing full-length and cleaved ATF6 was from Abcam (ab122897, used at 1:1000). Antibodies to tubulin (T5168) and beta actin (A5316) were from Sigma. All antibodies were used at 1:10000 dilution for western blot unless otherwise noted. For immunoprecipitations, cells were lysed in 500 μl lysis buffer (0.5% NP-40, 150 mM NaCl, 50 mM Tris pH 7.5, with protease and phosphatase inhibitors freshly added at 1:100 [Pierce, PI78443]) on ice for 15 minutes, then centrifuged for 10 minutes at 14,000 RPM and 4° C. The supernatant was transferred to a new tube and incubated with 10 μl JAK2 antibody (Santa Cruz sc-278) or a mix of two TYK2 antibodies, 10 μl of each (Santa Cruz sc-5271 and Cell Signaling Technology 9312). Immunoprecipitation was performed overnight at 4° C. with rotation. The next day, 75 μl of protein A/G beads (Santa Cruz sc-2003) were washed twice in lysis buffer, then incubated with immunoprecipitates overnight as before. The next day, the beads were spun down (1 min. at 7,500 RPM and 4° C.) and washed 3 times with 650 μl lysis buffer for 10 minutes at 4° C. with rotation, then boiled in 50 μl sample buffer+10% β-mercaptoethanol. For Western blot, 20 μl were loaded per lane. For detection of phospho-tyrosine, a mixture of two pan-phospho-tyrosine antibodies (Cell Signaling Technology 9411 and 9416, 1:1000 of each) was used. Antibody to phospho-Y1007/1008 JAK2 was from Cell Signaling 86 Technology (3771, used at 1:1000). Antibody to phospho-Y570 JAK2 was from Millipore (09-241, used at 1:1000). Luminometric Assays Luciferase reporter cell lines were described previously (186). Firefly luciferase values were normalized by concurrent cell viability. Cell viability was measured as ATP-dependent luminescence by Cell Titer Glo (Promega).
In asking how atovaquone induces REDD1, a possible role for ATF4, which regulates REDD1 expression was considered. ATF4 is regulated mainly at the level of translation and is induced upon phosphorylation of eIF2α. […] K562 and AML2 cells, which lack STAT3 activation, were treated with rapamycin for 72 hours. […] For these reasons, it was hypothesized that atovaquone induces eIF2α phosphorylation, with a resulting increase in ATF4 protein and signaling. U266, K562, and SKBR3 cells were treated with atovaquone (20, 20, 25 μM respectively). […] The phospho-eIF2α/ATF4 pathway represents one branch of the UPR, whose other branches consist of ATF6 cleavage and IRE1-mediated XBP1 splicing. […] Thus, atovaquone selectively activates the phospho-eIF2α/ATF4 branch of the UPR. […]

[3] = U266, K562, SKBR3, 20, 20, 25 μM

## O=C1C(O)=C([C@H]2CC[C@H](c3ccc(Cl)cc3)CC2)C(=O)c2ccccc21 [atovaquone, trans-2-[4-(4-chlorophenyl)cyclohexyl]-3-hydroxy-1,4-naphthalenedione]
STAT5; HEL cells
  mutant JAK2-dependent phosphorylation of STAT5: inhibited
STAT5; K562 cells
  STAT5 phosphorylation (BCR-ABL activated): did not inhibit STAT5 phosphorylation
[1]; patients taking standard doses
  plasma concentrations achieved in patients: 40 to 80 µM
[1]; patients
  plasma concentrations achieved in patients: 15000 to 30000 ng/mL
[2]
  auto-phosphorylation of JAK family members in cells: inhibited the auto-phosphorylation of JAK family members
eIF2α/ATF4 pathway
  CHAC1 expression: consistently upregulated
  CHOP expression: strongly upregulates CHOP
eIF2α/ATF4 pathway; U266, 15 μM, 2 hours
  expression of ATF4 mRNA: unchanged
eIF2α/ATF4 pathway; [3]
  ATF4 protein levels: increased ATF4 protein levels
  eIF2α phosphorylation: induced eIF2α phosphorylation
